Patent US20260070922A1, “PYRAZOLE AND IMIDAZOLE DERIVATIVES AS DUAL OREXIN AND KAPPA-OPIOID RECEPTORS MODULATORS COMPOSITION, METHODS FOR TREATING NEUROLOGICAL AND PSYCHIATRIC DISORDERS” (HAGER BIOSCIENCES, LLC, priority 2022, published 2026)

Assays:
[1] = molecular target: T1, human orexin-2 receptor (OX2R) (Homo sapiens, UniProt O43614); test: In vitro orexin antagonism assay: intracellular calcium measurement (FLIPR), orexin-A 3 nM as agonist; assay type: cell-based; conditions: for IC50: first value of IC50/Kb cell; for Kb: second value of IC50/Kb cell; for inhibition at 1 µM: read-out: OX2R, % Inh. @ 1 uM
T1 construct: expressed in transfected cells; host or cells: CHO cells (G418 selection)
T1 sequence (O43614 1-444): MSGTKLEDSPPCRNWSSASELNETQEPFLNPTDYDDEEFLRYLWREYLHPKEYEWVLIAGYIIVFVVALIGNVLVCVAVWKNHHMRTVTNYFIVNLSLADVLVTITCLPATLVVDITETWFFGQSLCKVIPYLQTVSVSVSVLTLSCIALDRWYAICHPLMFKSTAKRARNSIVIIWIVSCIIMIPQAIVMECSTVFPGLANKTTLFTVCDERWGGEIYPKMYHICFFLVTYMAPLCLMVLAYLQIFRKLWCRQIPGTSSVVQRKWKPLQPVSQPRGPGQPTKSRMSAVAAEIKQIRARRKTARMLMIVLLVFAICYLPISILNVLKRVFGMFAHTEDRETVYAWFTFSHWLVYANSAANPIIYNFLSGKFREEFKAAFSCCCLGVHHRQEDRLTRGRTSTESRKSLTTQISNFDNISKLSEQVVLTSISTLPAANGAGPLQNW
Procedure, shortened: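 CHO cells stably expressing human OX1R or OX2R, loaded with fluo-4 AM (3 μM, 5 mM probenecid) for 50 min at 37 °C, then 30 min at RT. Antagonist preincubated 120 min before 3 nM orexin-A; FLIPR fluorescence peak height vs vehicle gives IC50, possibly normalized to on-plate reference; geometric mean of repeats.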

[2] = molecular target: T2, Orexin type 1 (OX1R) receptor (Homo sapiens, UniProt O43613); test: as above; assay type: cell-based; conditions: for IC50: first value of IC50/Kb cell; for Kb: second value of IC50/Kb cell; for inhibition at 1 µM: read-out: OX1R, % Inh. @ 1 uM
T2 construct: expressed in transfected cells; host or cells: CHO cells (G418 selection)
T2 sequence (O43613 1-425): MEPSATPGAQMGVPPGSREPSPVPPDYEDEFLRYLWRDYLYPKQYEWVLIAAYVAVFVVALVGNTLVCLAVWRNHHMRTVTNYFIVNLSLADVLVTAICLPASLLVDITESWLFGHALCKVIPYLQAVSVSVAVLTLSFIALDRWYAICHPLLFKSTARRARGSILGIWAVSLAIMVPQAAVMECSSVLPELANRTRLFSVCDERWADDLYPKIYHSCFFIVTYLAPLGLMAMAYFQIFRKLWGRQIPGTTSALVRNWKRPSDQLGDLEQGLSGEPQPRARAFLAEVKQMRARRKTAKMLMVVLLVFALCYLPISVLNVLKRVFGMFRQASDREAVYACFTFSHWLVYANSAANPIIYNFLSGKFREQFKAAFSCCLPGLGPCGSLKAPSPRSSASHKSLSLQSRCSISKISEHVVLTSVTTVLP
Procedure, shortened: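 CHO cells expressing the human orexin receptor were loaded with 3 μM fluo-4 AM plus 5 mM probenecid, then exposed to antagonist for 120 min before 3 nM orexin-A (final) was added on a FLIPR.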

[3] = molecular target: T3, human k-opioid receptor (kOR) (Homo sapiens, UniProt P41145); test: Human k-opioid (KOP) receptor (agonist radioligand [3H]U-69593) binding assay, transfected RBL cell membranes; conditions: for IC50: first value of IC50/Ki cell; for Ki: second value of IC50/Ki cell; for inhibition at 1 µM: read-out: KOR % Inh. @ 1 uM
T3 construct: expressed in transfected cells; host or cells: RBL cells (membrane homogenates)
Protocol: Human k-Opioid (KOP) Receptor (Agonist Radioligand) Binding Assay
Purpose: Evaluation of the affinity of compounds for the human k-opioid receptor in transfected RBL cells determined in a radioligand binding assay.
Experimental protocol: Cell membrane homogenates (about 80 μg protein) are incubated for 60 min at 22° C. with 0.5 nM [3H]U-69593 in the absence or presence of the test compound in a buffer containing 50 mM Tris-HCl (pH 7.4), 10 mM MgCl2 and 1 mM EDTA. Nonspecific binding is determined in the presence of 10 μM naloxone. Following incubation, the samples are filtered rapidly under vacuum through glass fiber filters ([…], Packard) presoaked with 0.3% PEI and rinsed several times with ice-cold 50 mM Tris-HCl using a 96-sample cell harvester (Unifilter, Packard). The filters are dried then counted for radioactivity in a scintillation counter (Topcount, Packard) using a scintillation cocktail (Microscint 0, Packard). The results are expressed as a percent inhibition of the control radioligand specific binding. The standard reference compound is U-50488, which is tested in each experiment at several concentrations to obtain a competition curve from which its IC50 is calculated.

T3 sequence (P41145 whole entry): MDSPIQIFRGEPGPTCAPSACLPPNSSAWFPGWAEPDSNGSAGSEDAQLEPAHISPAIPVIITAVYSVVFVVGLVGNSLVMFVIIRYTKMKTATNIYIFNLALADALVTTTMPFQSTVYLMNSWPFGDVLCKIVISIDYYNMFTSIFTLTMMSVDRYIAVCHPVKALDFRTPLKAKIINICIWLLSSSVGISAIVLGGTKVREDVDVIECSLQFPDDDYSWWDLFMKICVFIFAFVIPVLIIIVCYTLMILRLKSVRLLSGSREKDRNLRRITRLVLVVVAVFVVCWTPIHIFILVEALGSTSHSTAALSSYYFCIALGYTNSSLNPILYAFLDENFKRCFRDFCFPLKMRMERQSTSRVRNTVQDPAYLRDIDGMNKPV

SMILES | OX2R, % Inh. @ 1 uM [1] | IC50 [1] | Kb [1] | OX1R, % Inh. @ 1 uM [2] | IC50 [2] | Kb [2] | KOR % Inh. @ 1 uM [3] | IC50 [3] | Ki [3] | inhibition at 1 µM [1] | inhibition at 1 µM [2] | inhibition at 1 µM [3]
O=C(c1c(-c2ccccc2)nn2ccccc12)N1CCC[C@H]1Cn1ccc(-c2ccc(F)cc2)n1 [Example 59] | 99% | 11 nM | 2 nM | 91% | 4 nM | 0.7 nM | 56% | 470 nM | 260 nM | – | – | –
O=C(c1c(-c2ccccc2)nn2ccccc12)N1CCC[C@H]1Cn1ccc(-c2ccc(C(F)(F)F)cc2)n1 [Example 60] | 37% | – | – | 78% | 106 nM | 22 nM | 63% | 390 nM | 210 nM | – | – | –
O=C(c1c(-c2ccc(F)cc2)nc2ccccn12)N1CCC[C@H]1Cn1ccc(-c2ccc(F)cc2)n1 [Example 61] | 73% | 76 nM | 10 nM | 85% | 29 nM | 6 nM | 74% | 280 nM | 150 nM | – | – | –
O=C(c1c(-c2ccccc2F)nc2ccccn12)N1CCC[C@H]1Cn1ccc(-c2ccc(F)cc2)n1 [Example 62] | 85.23% | 26 nM | 4 nM | 96.96% | 6 nM | 1 nM | 79% | 200 nM | 110 nM | – | – | –
O=C(c1c(-c2ccccc2F)nn2ccccc12)N1CCC[C@H]1Cn1ccc(-c2ccc(F)cc2)n1 [Example 63] | 100% | 6 nM | 0.9 nM | 98% | 4 nM | 0.8 nM | 75% | 280000 nM | – | – | – | –
O=C(c1c(-c2ccccc2F)nn2ccccc12)N1CCC[C@H]1COc1ccc(C(F)(F)F)cn1 [Example 64] | – | 275 nM | 38 nM | – | 11 nM | 2 nM | – | – | – | 67% | 81% | 37%
O=C(c1c(-c2ccccc2F)nc2ccccn12)N1CCC[C@H]1COc1ccc(C(F)(F)F)cn1 [Example 65] | – | – | – | – | 53 nM | 11 nM | – | – | – | 41% | 64% | 11%
O=C(c1c(-c2ccccc2F)nn2c1COCC2)N1CCC[C@H]1Cn1ccc(-c2ccc(F)cc2)n1 [Example 66] | 68% | 131 nM | 18 nM | 84% | 33 nM | 7 nM | 77% | 220 nM | 120 nM | – | – | –
O=C(c1c(-c2ccccc2F)nn2ccccc12)N1CCC[C@H]1Cn1ccc(-c2ccccn2)n1 [Example 67] | – | 20 nM | 4 nM | – | 13 nM | 3 nM | – | – | – | 74% | 100% | 27%
O=C(c1c(-c2ccccc2F)nn2ccccc12)N1CCC[C@H]1Cn1cc(-c2ccccn2)cn1 [Example 68] | – | 170 nM | 30 nM | – | 47 nM | 10 nM | – | – | – | 64% | 82% | 48%
O=C(c1c(-c2ccccc2)nc2ccc(F)cn12)N1CCC[C@H]1Cn1ccc(-c2ccccn2)n1 [Example 73] | – | – | – | – | 9 nM | 2 nM | – | – | – | 48% | 82% | 37%
O=C(c1c(-c2ccccc2)nc2cc(C(F)(F)F)ccn12)N1CCC[C@H]1Cn1ccc(-c2ccccn2)n1 [Example 78] | – | 270 nM | 48 nM | – | 160 nM | 34 nM | – | – | – | 55% | 78% | 52%
O=C(c1c(-c2ccccc2F)nn2ccccc12)N1CCC[C@H]1Cn1cc(-c2ccc(F)cn2)cn1 [Example 82] | – | 46 nM | 10 nM | – | 220 nM | 10 nM | – | – | – | 74% | 85% | 33%
O=C(c1c(-c2ccccc2)nn2c1COCC2)N1[C@@H]2CC[C@@H](C2)[C@H]1COc1ccc(C(F)(F)F)cn1 [Example 87] | – | – | – | – | 230 nM | 49 nM | – | – | – | 23% | 78% | 3%
O=C(c1c(-c2ccccc2)nn2ccccc12)N1[C@@H]2CC[C@@H](C2)[C@H]1COc1ccc(C(F)(F)F)cn1 [Example 88] | – | 360 nM | 63 nM | – | 37 nM | 8 nM | – | – | – | 66% | 97% | 22%
O=C(c1c(-c2ccccc2)nc2ccccn12)N1[C@@H]2CC[C@@H](C2)[C@H]1COc1ccc(C(F)(F)F)cn1 [Example 89] | – | – | – | – | 80 nM | 2 nM | – | – | – | 46% | 98% | 11%
O=C(c1c(-c2ccccc2F)nn2ccccc12)N1CCC[C@H]1Cn1ccc(-c2ccc(F)cn2)n1 [Example 90] | 84% | 15 nM | 3 nM | 99% | 6 nM | 1 nM | 33% | – | – | – | – | –
O=C(c1nn2ccccc2c1-c1ccccc1)N1CCC[C@H]1Cn1ccc(-c2ccc(F)cn2)n1 [Example 111] | – | 43 nM | 8 nM | – | 14 nM | 3 nM | – | – | – | 79% | 100% | 21%
O=C(c1nn2ccccc2c1-c1ccccc1)N1CC[C@H]1Cn1ccc(-c2ccc(F)cn2)n1 [Example 115] | – | – | – | – | 650 nM | 140 nM | – | – | – | 38% | 60% | 51%
O=C(c1nn2ccccc2c1-c1ccccc1)N1CCC[C@H]1Cc1nc(-c2ccc(F)cn2)no1 [Example 117] | – | 150 nM | 26 nM | – | 2 nM | 0.3 nM | – | – | – | 69% | 100% | 19%
O=C(c1nc2ccccn2c1-c1ccccc1)N1CCC[C@H]1Cn1cc(-c2ccccn2)cn1 [Example 118] | – | – | – | – | 5 nM | 1 nM | – | – | – | 45% | 100% | 35%
O=C(c1nc2ccccn2c1-c1ccccc1)N1CCC[C@H]1Cn1ccc(-c2ccccn2)n1 [Example 119] | – | – | – | – | 5 nM | 1 nM | – | – | – | 37% | 100% | 6%
O=C(c1c(-c2ccccc2)nn2ccccc12)N1CCC[C@H]1Cc1nc(-c2ccc(F)cn2)no1 [Example 120] | – | 300 nM | 52 nM | – | 46 nM | 10 nM | – | – | – | 63% | 80% | 22%
O=C(c1nc2ccccn2c1-c1ccccc1)N1CCC[C@H]1Cn1cc(-c2ccc(F)cn2)cn1 [Example 122] | – | – | – | – | 10 nM | 2 nM | – | – | – | 51% | 99% | 15%
